From patent publication US20250353891A1 (MEDIMMUNE LIMITED, priority 2022, published 2025) come the findings set out here.

The EC50 is the concentration that produces a half-maximal response.

For assay [1], the target named is human glucagon receptor (hGCGR) (Homo sapiens, UniProt P47871). In words: cAMP production (HTRF) in CHO cells expressing hGCGR. It is filed as cell-based. Details: expressed in transfected cells. Conditions: cAMP, CHO cells, 0.1% BSA, geometric mean. In a few lines:
(§1)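 Cells were resuspended in assay buffer at batch-optimized density, typically 1×10^5 cells/mL for hGLP-1R and 2×10^5 cells/mL for hGCGR. After 30 min incubation at room temperature with compound, cAMP was measured by two-step HTRF. EC50 values came from 4-parameter logistic fits of % Delta F.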

Assay [2] addresses human GLP-1 receptor (hGLP-1R) (Homo sapiens, UniProt P43220). Nature of the assay: cAMP production (HTRF) in CHO cells expressing hGLP-1R. It is filed as cell-based. The arrangement: expressed in transfected cells. Conditions: for % Relative Potency Ratio: % GLP-1R activity relative to GLP-1 / % GlucR activity relative to glucagon. In short, it runs like this:
as §1

Where [3] appears, read: cAMP, CHO cells, 0.1% BSA, geometric mean, read-out: hGLP-1R EC50.

Like-named read-outs stand apart in the source and are kept apart here. Starred links: 1 amine or outer side, 2 acyl side, 3 side chain; linkers in the order of their positions; H or OH if unused. Non-standard residues stand in square brackets, D forms with d. Residues, ends and D or L forms follow the SMILES beside them. Groups on a side chain read outwards from the residue. *: point of attachment. C18 diacid = O=C(O)CCCCCCCCCCCCCCCCC(=O)*; Dip = N[C@H](C(=O)O)C(c1ccccc1)c1ccccc1; γGlu = O=C(O)[C@H](CCC(=O)[*:2])N[*:1]; αMeF = C[C@](N)(Cc1ccccc1)C(=O)O; PEG2 = NCCOCCOCCC(=O)O; AEEA = NCCOCCOCC(=O)O; Aib = CC(C)(N)C(=O)O Where only a bound is given, the exact number is not on record here.

Chain of human glucagon receptor (hGCGR) (P47871 26-477): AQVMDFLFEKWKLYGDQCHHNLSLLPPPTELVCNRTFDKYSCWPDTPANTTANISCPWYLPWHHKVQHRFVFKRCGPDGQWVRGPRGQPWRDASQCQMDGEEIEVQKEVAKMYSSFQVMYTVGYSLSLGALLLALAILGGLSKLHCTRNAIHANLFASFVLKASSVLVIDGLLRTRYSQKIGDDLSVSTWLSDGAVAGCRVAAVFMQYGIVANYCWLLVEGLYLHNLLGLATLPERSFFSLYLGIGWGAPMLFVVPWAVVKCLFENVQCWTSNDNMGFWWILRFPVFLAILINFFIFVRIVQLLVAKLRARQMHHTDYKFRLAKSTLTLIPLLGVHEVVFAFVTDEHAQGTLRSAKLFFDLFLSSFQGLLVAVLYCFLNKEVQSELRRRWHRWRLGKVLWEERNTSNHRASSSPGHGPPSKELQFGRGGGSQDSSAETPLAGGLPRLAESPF
Chain of human GLP-1 receptor (hGLP-1R) (P43220 24-463): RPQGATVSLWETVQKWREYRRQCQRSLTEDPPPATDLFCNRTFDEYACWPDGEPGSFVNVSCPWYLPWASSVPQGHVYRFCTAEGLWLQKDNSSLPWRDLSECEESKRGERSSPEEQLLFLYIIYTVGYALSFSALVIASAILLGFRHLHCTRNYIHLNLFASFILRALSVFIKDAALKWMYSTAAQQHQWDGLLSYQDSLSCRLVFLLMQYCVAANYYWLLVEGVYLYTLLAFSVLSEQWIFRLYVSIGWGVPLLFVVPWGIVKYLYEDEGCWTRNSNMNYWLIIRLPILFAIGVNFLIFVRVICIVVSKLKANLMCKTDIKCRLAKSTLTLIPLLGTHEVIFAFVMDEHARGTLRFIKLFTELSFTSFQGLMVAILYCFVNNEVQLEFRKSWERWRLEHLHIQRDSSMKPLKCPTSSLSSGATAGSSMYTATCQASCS

Turning to `CC[C@H](C)[C@H](NC(=O)[C@H](Cc1c[nH]c2ccccc12)NC(=O)[C@H](CCCCNC(=O)CC[C@H](NC(=O)CCCCCCCCCCCCCCCCC(=O)O)C(=O)O)NC(=O)[C@@H](NC(=O)[C@H](Cc1ccccc1)NC(=O)[C@H](CC(=O)O)NC(=O)[C@H](CCC(N)=O)NC(=O)[C@H](C)NC(=O)[C@H](C)NC(=O)[C@H](CCCNC(=N)N)NC(=O)[C@H](CO)NC(=O)[C@H](CC(=O)O)NC(=O)[C@H](CC(C)C)NC(=O)[C@@H](NC(=O)[C@H](CCCCN)NC(=O)[C@H](CO)NC(=O)[C@@H](NC(=O)[C@H](CC(=O)O)NC(=O)[C@H](CO)NC(=O)[C@@H](NC(=O)[C@H](Cc1ccccc1)NC(=O)[C@H](CO)NC(=O)CNC(=O)[C@H](CCC(N)=O)NC(=O)C(C)(C)NC(=O)[C@@H](N)Cc1c[nH]cn1)[C@@H](C)O)C(C)C)C(c1ccccc1)c1ccccc1)C(C)C)C(=O)N[C@@H](C)C(=O)N[C@@H](CC(N)=O)C(=O)N[C@H](C(N)=O)[C@@H](C)O` [Peptide 343] (H-H[Aib]QGSFTSDVSK[Dip]LDSRAAQDFVK([γGlu-C18 diacid])WIANT-NH2; N-terminus assumed), the EC50 in assay [1] (read-out: hGluc-R EC50) amounted to 126 pM; in assay [2] (setting [3]) it was 58.6 pM. For the same compound, the “% Relative Potency Ratio” value in assay [2] is recorded as 4.2.
As to `CC[C@H](C)[C@H](NC(=O)C(C)(C)NC(=O)[C@H](CCCCNC(=O)COCCOCCNC(=O)COCCOCCNC(=O)CC[C@H](NC(=O)CCCCCCCCCCCCCCCCC(=O)O)C(=O)O)NC(=O)[C@@H](NC(=O)[C@](C)(Cc1ccccc1)NC(=O)[C@H](CC(=O)O)NC(=O)[C@H](CCC(N)=O)NC(=O)[C@H](C)NC(=O)[C@H](C)NC(=O)[C@H](CCCNC(=N)N)NC(=O)[C@H](CO)NC(=O)[C@H](CC(=O)O)NC(=O)[C@H](CC(C)C)NC(=O)C(C)(C)NC(=O)[C@H](CCCCN)NC(=O)[C@H](CO)NC(=O)[C@@H](NC(=O)[C@H](CC(=O)O)NC(=O)[C@H](CO)NC(=O)[C@@H](NC(=O)[C@](C)(Cc1ccccc1)NC(=O)[C@H](CO)NC(=O)CNC(=O)[C@H](CCC(N)=O)NC(=O)[C@H](CO)NC(=O)[C@@H](N)Cc1c[nH]cn1)[C@@H](C)O)C(C)C)C(C)C)C(=O)N[C@@H](C)C(=O)N[C@@H](CC(N)=O)C(N)=O` [Peptide 344] (H-HSQGS[αMeF]TSDVSK[Aib]LDSRAAQD[αMeF]VK([AEEA-AEEA-γGlu-C18 diacid])[Aib]IAN-NH2; N-terminus assumed), the results for the EC50 in assay [1] (read-out: hGluc-R EC50) and in assay [2] (setting [3]) were more than 26900 pM and 135 pM, respectively.
With `CC[C@H](C)[C@H](NC(=O)[C@H](Cc1c[nH]c2ccccc12)NC(=O)[C@H](CCCCNC(=O)CC[C@H](NC(=O)CCCCCCCCCCCCCCCCCCC(=O)O)C(=O)O)NC(=O)[C@@H](NC(=O)[C@H](Cc1ccccc1)NC(=O)[C@H](CC(=O)O)NC(=O)[C@H](CCC(N)=O)NC(=O)[C@H](C)NC(=O)[C@H](C)NC(=O)[C@H](CCC(N)=O)NC(=O)[C@H](CO)NC(=O)[C@H](CC(=O)O)NC(=O)[C@H](CC(C)C)NC(=O)[C@](C)(Cc1ccccc1)NC(=O)[C@H](CCCCN)NC(=O)[C@H](CO)NC(=O)[C@@H](NC(=O)[C@H](CC(=O)O)NC(=O)[C@H](CO)NC(=O)[C@@H](NC(=O)[C@H](Cc1ccccc1)NC(=O)[C@@H](NC(=O)CNC(=O)[C@H](Cc1c[nH]cn1)NC(=O)C(C)(C)NC(=O)[C@@H](N)Cc1c[nH]cn1)[C@@H](C)O)[C@@H](C)O)C(C)C)C(C)C)C(=O)N[C@@H](C)C(=O)N[C@@H](CC(N)=O)C(=O)N[C@H](C(N)=O)[C@@H](C)O` [Peptide 347], the EC50 in assay [1] (hGluc-R EC50 (pM)) was 597 pM; in assay [2] (hGLP-1R EC50 (pM)) it was 4970 pM. In addition, the “% Relative Potency Ratio” value in assay [2] worked out at 0.2.
For `CC[C@H](C)[C@H](NC(=O)[C@H](Cc1c[nH]c2ccccc12)NC(=O)[C@H](CCCCNC(=O)COCCOCCNC(=O)COCCOCCNC(=O)CC[C@H](NC(=O)CCCCCCCCCCCCCCCCC(=O)O)C(=O)O)NC(=O)[C@@H](NC(=O)[C@H](Cc1ccccc1)NC(=O)[C@H](CC(=O)O)NC(=O)[C@H](CCC(N)=O)NC(=O)[C@H](C)NC(=O)[C@H](C)NC(=O)[C@H](CCC(N)=O)NC(=O)[C@H](CO)NC(=O)[C@H](CC(=O)O)NC(=O)[C@H](CC(C)C)NC(=O)[C@](C)(Cc1ccccc1)NC(=O)[C@H](CCCCN)NC(=O)[C@H](CO)NC(=O)[C@@H](NC(=O)[C@H](CC(=O)O)NC(=O)[C@H](CO)NC(=O)[C@@H](NC(=O)[C@](C)(Cc1ccccc1)NC(=O)[C@H](CO)NC(=O)CNC(=O)[C@H](CCC(N)=O)NC(=O)C(C)(C)NC(=O)[C@@H](N)Cc1c[nH]cn1)[C@@H](C)O)C(C)C)C(C)C)C(=O)N[C@@H](C)C(=O)N[C@@H](CC(N)=O)C(=O)N[C@H](C(N)=O)[C@@H](C)O` [Peptide 348] (H-H[Aib]QGS[αMeF]TSDVSK[αMeF]LDSQAAQDFVK([AEEA-AEEA-γGlu-C18 diacid])WIANT-NH2), the figures for the EC50 in assay [1] (hGluc-R EC50 (pM)) and in assay [2] (hGLP-1R EC50 (pM)) were 4110 pM and 70.1 pM, respectively.
For the compound `CC[C@H](C)[C@H](NC(=O)[C@H](Cc1c[nH]c2ccccc12)NC(=O)[C@H](CCCCNC(=O)COCCOCCNC(=O)COCCOCCNC(=O)CC[C@H](NC(=O)CCCCCCCCCCCCCCCCC(=O)O)C(=O)O)NC(=O)[C@@H](NC(=O)[C@H](Cc1ccccc1)NC(=O)[C@H](CC(=O)O)NC(=O)[C@H](CCC(N)=O)NC(=O)[C@H](C)NC(=O)[C@H](C)NC(=O)[C@H](CCC(N)=O)NC(=O)[C@H](CO)NC(=O)[C@H](CC(=O)O)NC(=O)[C@H](CC(C)C)NC(=O)[C@](C)(Cc1ccccc1)NC(=O)[C@H](CCCCN)NC(=O)[C@H](CO)NC(=O)[C@@H](NC(=O)[C@H](CC(=O)O)NC(=O)[C@H](CO)NC(=O)[C@@H](NC(=O)[C@](C)(Cc1ccccc1)NC(=O)[C@H](CO)NC(=O)CNC(=O)[C@H](Cc1c[nH]cn1)NC(=O)C(C)(C)NC(=O)[C@@H](N)Cc1c[nH]cn1)[C@@H](C)O)C(C)C)C(C)C)C(=O)N[C@@H](C)C(=O)N[C@@H](CC(N)=O)C(=O)N[C@H](C(=O)NCC(=O)NCC(N)=O)[C@@H](C)O` [Peptide 350] (H-H[Aib]HGS[αMeF]TSDVSK[αMeF]LDSQAAQDFVK([AEEA-AEEA-γGlu-C18 diacid])WIANTGG-NH2; N-terminus assumed), the concentration giving a half-maximal response (EC50) in assay [1] (hGluc-R EC50 (pM)) amounted to 384 pM; in assay [2] (hGLP-1R EC50 (pM)), 88.6 pM. In addition, the “% Relative Potency Ratio” value in assay [2] came to 8.6.
In the same order, the values of `CC[C@H](C)[C@H](NC(=O)[C@H](Cc1c[nH]c2ccccc12)NC(=O)[C@H](CCCCNC(=O)CC[C@H](NC(=O)CCCCCCCCCCCCCCCCC(=O)O)C(=O)O)NC(=O)[C@@H](NC(=O)[C@H](Cc1ccccc1)NC(=O)[C@H](CC(=O)O)NC(=O)[C@H](CCC(N)=O)NC(=O)[C@H](C)NC(=O)[C@H](C)NC(=O)[C@H](CCC(N)=O)NC(=O)[C@H](CO)NC(=O)[C@H](CC(=O)O)NC(=O)[C@H](CC(C)C)NC(=O)[C@](C)(Cc1ccccc1)NC(=O)[C@H](CCCCN)NC(=O)[C@H](CO)NC(=O)[C@@H](NC(=O)[C@H](CC(=O)O)NC(=O)[C@H](CO)NC(=O)[C@@H](NC(=O)[C@](C)(Cc1ccccc1)NC(=O)[C@H](CO)NC(=O)CNC(=O)[C@H](Cc1c[nH]cn1)NC(=O)C(C)(C)NC(=O)[C@@H](N)Cc1c[nH]cn1)[C@@H](C)O)C(C)C)C(C)C)C(=O)N[C@@H](C)C(=O)N[C@@H](CC(N)=O)C(=O)N[C@H](C(N)=O)[C@@H](C)O` [Peptide 351] (H-H[Aib]HGS[αMeF]TSDVSK[αMeF]LDSQAAQDFVK([γGlu-C18 diacid])WIANT-NH2) are 216 pM, 605 pM and 0.7.
Take `CC[C@H](C)[C@H](NC(=O)[C@H](Cc1c[nH]c2ccccc12)NC(=O)[C@H](CCCCNC(=O)CCOCCOCCNC(=O)CCOCCOCCNC(=O)CC[C@H](NC(=O)CC[C@H](NC(=O)CCCCCCCCCCCCCCCCC(=O)O)C(=O)O)C(=O)O)NC(=O)[C@@H](NC(=O)[C@H](Cc1ccccc1)NC(=O)[C@H](CC(=O)O)NC(=O)[C@H](CCC(N)=O)NC(=O)[C@H](C)NC(=O)[C@H](C)NC(=O)[C@H](CCC(N)=O)NC(=O)[C@H](CO)NC(=O)[C@H](CC(=O)O)NC(=O)[C@H](CC(C)C)NC(=O)[C@](C)(Cc1ccccc1)NC(=O)[C@H](CCCCN)NC(=O)[C@H](CO)NC(=O)[C@@H](NC(=O)[C@H](CC(=O)O)NC(=O)[C@H](CO)NC(=O)[C@@H](NC(=O)[C@](C)(Cc1ccccc1)NC(=O)[C@H](CO)NC(=O)CNC(=O)[C@H](Cc1c[nH]cn1)NC(=O)C(C)(C)NC(=O)[C@@H](N)Cc1c[nH]cn1)[C@@H](C)O)C(C)C)C(C)C)C(=O)N[C@@H](C)C(=O)N[C@@H](CC(N)=O)C(=O)N[C@H](C(N)=O)[C@@H](C)O` [Peptide 352] (H-H[Aib]HGS[αMeF]TSDVSK[αMeF]LDSQAAQDFVK([PEG2-PEG2-γGlu-γGlu-C18 diacid])WIANT-NH2; N-terminus assumed): the concentration for a half-maximal effect (EC50) amounted to 139 pM in assay [1] (hGluc-R EC50 (pM)) and 193 pM in assay [2] (hGLP-1R EC50 (pM)). Besides, the “% Relative Potency Ratio” value in assay [2] amounted to 1.4.
For `CC[C@H](C)[C@H](NC(=O)[C@H](Cc1c[nH]c2ccccc12)NC(=O)[C@H](CCCCNC(=O)CC[C@H](NC(=O)CC[C@H](NC(=O)CCOCCOCCNC(=O)CC[C@H](NC(=O)CC[C@H](NC(=O)CCCCCCCCCCCCCCCCC(=O)O)C(=O)O)C(=O)O)C(=O)O)C(=O)O)NC(=O)[C@@H](NC(=O)[C@H](Cc1ccccc1)NC(=O)[C@H](CC(=O)O)NC(=O)[C@H](CCC(N)=O)NC(=O)[C@H](C)NC(=O)[C@H](C)NC(=O)[C@H](CCC(N)=O)NC(=O)[C@H](CO)NC(=O)[C@H](CC(=O)O)NC(=O)[C@H](CC(C)C)NC(=O)[C@](C)(Cc1ccccc1)NC(=O)[C@H](CCCCN)NC(=O)[C@H](CO)NC(=O)[C@@H](NC(=O)[C@H](CC(=O)O)NC(=O)[C@H](CO)NC(=O)[C@@H](NC(=O)[C@](C)(Cc1ccccc1)NC(=O)[C@H](CO)NC(=O)CNC(=O)[C@H](Cc1c[nH]cn1)NC(=O)C(C)(C)NC(=O)[C@@H](N)Cc1c[nH]cn1)[C@@H](C)O)C(C)C)C(C)C)C(=O)N[C@@H](C)C(=O)N[C@@H](CC(N)=O)C(=O)N[C@H](C(N)=O)[C@@H](C)O` [Peptide 353] (H-H[Aib]HGS[αMeF]TSDVSK[αMeF]LDSQAAQDFVK([γGlu-γGlu-PEG2-γGlu-γGlu-C18 diacid])WIANT-NH2; N-terminus assumed), in that order: 163 pM, 311 pM and 1.0.
